Data as given in BindingDB's records for patent US10633389 (Epizyme, Inc., 2020).

Each compound was assayed against T1, Histone-arginine methyltransferase CARM1 (Homo sapiens, UniProt Q86X55) (assay: Enzyme Assay).
T1 sequence (Q86X55 whole entry): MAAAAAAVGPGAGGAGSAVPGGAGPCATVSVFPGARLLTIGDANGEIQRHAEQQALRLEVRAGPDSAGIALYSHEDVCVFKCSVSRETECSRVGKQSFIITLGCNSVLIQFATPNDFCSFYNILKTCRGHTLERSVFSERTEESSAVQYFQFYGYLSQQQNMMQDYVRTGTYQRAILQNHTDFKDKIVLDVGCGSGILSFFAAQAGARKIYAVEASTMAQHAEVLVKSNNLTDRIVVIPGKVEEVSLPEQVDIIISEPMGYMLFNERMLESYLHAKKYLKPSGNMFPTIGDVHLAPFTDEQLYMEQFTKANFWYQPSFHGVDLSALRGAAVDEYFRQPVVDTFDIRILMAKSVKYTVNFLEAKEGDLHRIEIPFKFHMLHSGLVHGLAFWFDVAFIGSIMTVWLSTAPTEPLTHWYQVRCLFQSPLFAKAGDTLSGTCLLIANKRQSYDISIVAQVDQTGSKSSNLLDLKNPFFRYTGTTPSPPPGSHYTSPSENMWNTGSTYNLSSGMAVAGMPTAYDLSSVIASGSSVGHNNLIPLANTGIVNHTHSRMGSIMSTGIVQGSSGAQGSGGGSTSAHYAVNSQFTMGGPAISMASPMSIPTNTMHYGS
Procedure: The assays were all performed in a buffer consisting of 20 mM Bicine (pH=7.6), 1 mM TCEP, 0.005% BSG, and 0.002% Tween 20, prepared on the day of use. […] DMSO (1 ul) was added to Columns 11, 12, 23, 24, rows A-H for the maximum signal control and 1 ul of SAH, a known product and inhibitor of CARM1, was added to columns 11, 12, 23, 24, rows I-P for the minimum signal control. A cocktail (40 ul) containing the CARM1 enzyme was added by Multidrop Combi. The compounds were allowed to incubate with CARM1 for 30 min at room temperature, then a cocktail (10 ul) containing 3H-SAM and peptide was added to initiate the reaction (final volume=51 ul). […] The assays were stopped by the addition of non-radiolabeled SAM (10 ul) to a final concentration of 300 uM, which dilutes the 3H-SAM to a level where its incorporation into the peptide substrate is no longer detectable. 50 ul of the reaction in the 384-well polypropylene plate was then transferred to a 384-well Flashplate and the biotinylated peptides were allowed to bind to the streptavidin surface for at least 1 hour before being washed once with 0.1% Tween20 in a Biotek ELx405 plate washer.

| Compound | IC50 [nM] |
| --- | --- |
| CNCC(O)COc1cccc(-c2nc(N[C@@H]3CCOC3)c(C)c(N3CCC[C@H]4CN(Cc5ccccc5)C[C@H]43)n2)c1 (stereo partly specified) [US10633389, Example 378-1a] | < 100 |
| CNCC(O)COc1cccc(-c2nc(N[C@@H]3CCOC3)c(C)c(N3CCC(n4c(C)nnc4C)CC3)n2)c1 (stereo partly specified) [US10633389, Example 390-1a] | < 100 |
| CNCC(O)COc1cccc(-c2nc(N[C@@H]3CCOC3)c(C)c(-c3ccc4nccn4c3)n2)c1 (stereo partly specified) [US10633389, Example 445-1a] | < 100 |
| CCS(=O)(=O)n1cc(-c2cc(N(C)C3CCOCC3)nc(-c3cccc(OCC(O)CNC)c3)n2)c2cncnc21 (stereo unspecified) [US10633389, Example 484-1a] | < 100 |

Now from value to compound:

| IC50 [nM] | Compound |
| --- | --- |
| < 100 | CCN1CCC(Nc2nc(-c3cc(OC[C@H](O)CNC)ccc3Cl)nc(-c3c(C)noc3C)c2C)C(F)(F)C1 (stereo partly specified) [US10633389, Example 291-3] |
| < 100 | CNC[C@@H](O)COc1ccc(Cl)c(-c2nc(NC3CCN(C4CC4)CC3(F)F)c(C)c(-c3c(C)noc3C)n2)c1 (stereo partly specified) [US10633389, Example 292-3] |
